Assay [1] has as its target T1, human RXFP1 (Homo sapiens, UniProt Q9HBX9).
T1 construct: FLAG (N); expressed in transfected cells
T1 sequence (Q9HBX9 1-757): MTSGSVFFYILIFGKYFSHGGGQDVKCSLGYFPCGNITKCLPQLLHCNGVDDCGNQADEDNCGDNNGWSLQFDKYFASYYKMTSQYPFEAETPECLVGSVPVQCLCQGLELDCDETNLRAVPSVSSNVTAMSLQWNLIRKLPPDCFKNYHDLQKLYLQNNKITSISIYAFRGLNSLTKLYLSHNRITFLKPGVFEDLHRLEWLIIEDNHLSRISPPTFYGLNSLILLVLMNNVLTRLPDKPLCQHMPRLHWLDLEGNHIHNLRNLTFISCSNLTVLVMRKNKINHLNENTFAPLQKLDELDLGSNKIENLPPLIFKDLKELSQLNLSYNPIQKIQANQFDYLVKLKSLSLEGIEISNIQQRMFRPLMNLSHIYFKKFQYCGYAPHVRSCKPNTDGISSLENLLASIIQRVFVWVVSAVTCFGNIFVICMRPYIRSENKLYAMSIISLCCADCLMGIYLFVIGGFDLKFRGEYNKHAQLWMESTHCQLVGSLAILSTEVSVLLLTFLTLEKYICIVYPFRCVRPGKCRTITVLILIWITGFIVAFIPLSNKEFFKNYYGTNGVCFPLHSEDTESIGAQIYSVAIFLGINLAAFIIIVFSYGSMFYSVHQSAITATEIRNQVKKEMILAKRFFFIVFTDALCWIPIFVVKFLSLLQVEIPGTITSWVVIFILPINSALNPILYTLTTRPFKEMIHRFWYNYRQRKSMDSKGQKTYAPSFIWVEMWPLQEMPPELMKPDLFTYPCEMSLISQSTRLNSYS
Description: HTRF cAMP counter-screen in HEK293T cells expressing human RXFP1. It counts as cell-based. Particulars: for % Eff (cAMP): human RXFP1, experiments (1)-(3). As to the method: The HTRF Gs dynamic cAMP assay kit (CisBio, Bedford, MA) was used to measure intracellular cAMP accumulation in HEK293T cells (ATCC, Manassas, VA)[56]. […] The cell stock was verified mycoplasma free and authenticated by ATCC. Transient transfection was accomplished by treating cells in a 6-well plate with a mixture of 2 μg plasmid and 6 μL Lipofectamine 2000 (Invitrogen, Waltham, MA) per manufacturer’s protocol and incubating overnight. For cAMP measurement in 96-well format, HEK293T cells stably transfected with human RXFP2 (HEK-RXFP2), human RXFP1 (HEK-RXFP1), mouse Rxfp1 (HEK-Rxfp1) or transiently transfected with human RXFP1-RXFP2 chimeric receptors were seeded between 7500 and 30,000 cells per well, depending on cell line responsiveness, in serum-free DMEM medium and incubated overnight at 37 °C, 5% CO2. After 18 h, cells were treated with a titration of compound, 2 μM forskolin, or DMSO vehicle. Control wells were also treated with a titration of INSL3 (Phoenix Pharmaceuticals, Burlingame, CA) or human recombinant relaxin 2 (Peprotech, Cranbury, NJ). For the RXFP2 antagonist experiment, cells were co-treated with 0.28 μM compound or 30 nM INSL3 and a titration of the INSL3 B dimer antagonist[38],[39]. For the INSL3 allosteric modulation experiment, cells were co-treated with 0.025, 0.0025, or 0.00025 μM of compound and a titration of INSL3. Cells were incubated for 1 h at 37 °C, 5% CO2, and then kit cAMP-d2 and anti-cAMP antibody were added per manufacturer protocol. Plates were incubated for 1 h at room temperature and the signal was read on a CLARIOstar plate reader (BMG Labtech, Ortenberg, Germany) at 665 and 620 nm emission wavelengths. […]
receptors. HTRF cAMP counter-screen of RXFP2 agonists in HEK293T cells expressing a human RXFP1 and b mouse RXFP1. Relaxin 2 was used as positive control for RXFP1 receptor activation. Results are expressed as mean ± SEM of 3
(In TR-FRET formats the signal depends on donor and acceptor labels being close together.)

Assay [2] has as its target RXFP2 (Homo sapiens, UniProt Q8WXD0). The assay is described as follows: PRESTO-Tango β-arrestin recruitment, RXFP2. The conditions noted are these: 10 µM compound. Type of assay: cell-based. More on the design: host or cells: HTLA (transient). As to the method: β-arrestin is an important GPCR adaptor protein that mediates several receptor processes including signaling, desensitization, and trafficking. The PRESTO-Tango GPCRome assay was further used to test specificity and selectivity of lead RXFP2 agonists 6641 and 4337. GPCR-mediated β-arrestin recruitment for a panel of 320 human GPCRs was studied in transiently transfected HTLA cells treated with 10 µM compound. The results for all 320 GPCRs tested are summarized in Supplementary Data 1. […] ADORA1 activation by an agonist results in Gαi protein binding, an inhibition of adenylate cyclase and, therefore, a decrease in the cAMP concentration.
To further investigate possible off-target effects of small molecule agonists of RXFP2 on GPCRs, we performed a PRESTO-Tango assay of 320 GPCRs to detect β-arrestin recruitment to the receptors after treatment with our compounds. […] This might be beneficial in clinical applications, as it potentially reduces the amount of drug needed to induce a biological response for this target, even in cells with low receptor expression. It should be noted also that a PRESTO-Tango assay is not designed to detect inhibitors of β-arrestin recruitment.
The PRESTO-Tango GPCRome assay was used to perform a HTS of related GPCRs to study specificity and selectivity of the RXFP2 agonists by measuring β-arrestin translocation activity. […]
For orientation: Recruitment of arrestin is a read-out of receptor activation apart from second messengers.

Several values for one entry are separate records, joined by “and”; a condition that tells them apart may be missing. Equal entries are not always repeated.

Chain of RXFP2 (Q8WXD0 whole entry): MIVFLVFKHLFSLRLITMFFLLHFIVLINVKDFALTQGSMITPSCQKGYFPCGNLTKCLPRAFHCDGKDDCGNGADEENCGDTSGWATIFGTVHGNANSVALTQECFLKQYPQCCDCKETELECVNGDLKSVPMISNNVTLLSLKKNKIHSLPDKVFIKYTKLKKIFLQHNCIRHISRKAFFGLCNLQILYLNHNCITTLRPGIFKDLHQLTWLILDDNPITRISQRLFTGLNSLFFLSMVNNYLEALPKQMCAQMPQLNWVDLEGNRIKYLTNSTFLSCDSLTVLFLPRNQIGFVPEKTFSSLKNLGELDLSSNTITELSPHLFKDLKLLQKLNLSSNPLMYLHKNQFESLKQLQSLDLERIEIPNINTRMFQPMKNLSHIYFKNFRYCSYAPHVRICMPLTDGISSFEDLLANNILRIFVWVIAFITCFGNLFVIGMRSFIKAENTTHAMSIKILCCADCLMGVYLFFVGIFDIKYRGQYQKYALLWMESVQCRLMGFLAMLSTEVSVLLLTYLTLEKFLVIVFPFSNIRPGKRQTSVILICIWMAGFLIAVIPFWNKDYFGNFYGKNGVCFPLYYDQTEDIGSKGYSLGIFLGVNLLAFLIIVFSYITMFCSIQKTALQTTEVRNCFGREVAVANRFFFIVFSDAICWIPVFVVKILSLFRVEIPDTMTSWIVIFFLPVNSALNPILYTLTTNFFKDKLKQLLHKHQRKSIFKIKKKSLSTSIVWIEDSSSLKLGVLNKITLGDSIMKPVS

As to `O=C1Nc2ccc(-c3cc(C(F)(F)F)cc(C(F)(F)F)c3)cc2C(=O)N2CCN(C(=O)COc3ccc(OC(F)(F)F)cc3I)C[C@@H]12` [compound 6641], the “activation of human RXFP1 receptor” value in assay [1] (HTRF cAMP) was “do not activate”. Besides, the “% Eff (cAMP)” value in assay [1] (Log [M] -4.60) was -1.3757% and -1.734% and -1.01%; in assay [1] (Log [M] -5.60), -1.852% and -1.326% and -2.683%; in assay [1] (Log [M] -6.60), -1.88% and -0.1839% and -0.6843%; in assay [1] (Log [M] -7.60), -1.108% and 0.09011% and -0.3682%. For the same compound, in assay [2], the “RXFP2-mediated β-arrestin recruitment” value was “not detected”.

The record behind these values is article PMC9636434, “Discovery of small molecule agonists of the Relaxin Family Peptide Receptor 2” (Communications Biology, 2022).
